pEC50, pIC50: −log10 of the molar value. One block for each molecule: values may come before it.
Tests used:
PI3Kα (p110α/p85α) = target: T1, PI3Kα (p110α/p85α) (Homo sapiens, UniProt P42336); assay: HTRF assay, potency against active PI3Kα; assay type: biochemical; conditions: HTRF; [ATP]=50 μM, [di-C8-PIP2]=10 μM; 30 min pre-incubation; read-out: PI3Kα Inhibition
T1 construct: purchased BPS Bioscience (San Diego, Calif.) or Millipore (Billerica, Mass.)
How it was run: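 Active p110/p85α lipid kinase reactions were started with ATP and run 30-60 minutes at 25 °C, then stopped and developed with HTRF detection mix. HTRF ratio converted to % inhibition against ±enzyme controls; IC50 from log[inhibitor] vs response, variable slope.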

Phospho-Akt(Ser473) = assay: Dose response in SKOV3 cells as determined by in-cell Western; assay type: cell-based; conditions: Homo sapiens, SK-OV-3; SKOV3 cells, 1 hr; read-out: pAKT Inhibition in cell Western
Experimental: Dose Response in SKOV3 Cells as Determined by in-Cell Western
Twenty four hours later the media was removed and replaced with 100 ul media containing test compound or control compound and cells were returned to the incubator for 1 hr. At the end of the hour, the media was removed and the cells were washed once with PBS, then fixed for 20 minutes at room temperature in 4% formaldehyde in PBS. The formaldehyde was removed and cells were washed 5 times for 5 minutes with 100 ul of Permeabilization Buffer (PBS+0.1% Triton X-100) at room temperature with gentle shaking. The last wash was removed and replaced with 150 ul of Odyssey Blocking Buffer (Li-Cor, Lincoln, Nebr.) and incubated for 90 minutes at room temperature with gentle shaking.
The Blocking Buffer was then replaced with 50 ul of primary antibody mix (rabbit anti-Phospho-Akt(Ser473) at 1:100 (Cell Signaling Technology, Boston, Mass.) and mouse anti-tubulin at 1:5000 (Sigma Aldrich, St. Louis, Mo.) diluted in Odyssey Blocking Buffer) and incubated overnight at room temperature with gentle shaking.
The next morning, the antibody mix was removed and the wells were washed 5 times for 5 minutes with PBS+0.1% Tween-20. The last wash was replaced with 50 ul of secondary antibody mix (goat anti-rabbit-IRDye-680 and goat anti-mouse-IRDye-800 (Li-Cor), both diluted 1:1000 in Odyssey Blocking Buffer+0.2% Tween-20) and incubated for 1 hour at room temperature with gentle shaking. The antibody mix was removed and the wells were washed 5 times for 5 minutes in PBS+0.1% Tween-20, then 1 time with ddH2O.
The plates were scanned on an Odyssey machine (Li-Cor) with a 3 mm focus offset at an intensity of 8 in both channels and the data was analyzed using the Odyssey software.

T1 sequence (P42336 whole entry): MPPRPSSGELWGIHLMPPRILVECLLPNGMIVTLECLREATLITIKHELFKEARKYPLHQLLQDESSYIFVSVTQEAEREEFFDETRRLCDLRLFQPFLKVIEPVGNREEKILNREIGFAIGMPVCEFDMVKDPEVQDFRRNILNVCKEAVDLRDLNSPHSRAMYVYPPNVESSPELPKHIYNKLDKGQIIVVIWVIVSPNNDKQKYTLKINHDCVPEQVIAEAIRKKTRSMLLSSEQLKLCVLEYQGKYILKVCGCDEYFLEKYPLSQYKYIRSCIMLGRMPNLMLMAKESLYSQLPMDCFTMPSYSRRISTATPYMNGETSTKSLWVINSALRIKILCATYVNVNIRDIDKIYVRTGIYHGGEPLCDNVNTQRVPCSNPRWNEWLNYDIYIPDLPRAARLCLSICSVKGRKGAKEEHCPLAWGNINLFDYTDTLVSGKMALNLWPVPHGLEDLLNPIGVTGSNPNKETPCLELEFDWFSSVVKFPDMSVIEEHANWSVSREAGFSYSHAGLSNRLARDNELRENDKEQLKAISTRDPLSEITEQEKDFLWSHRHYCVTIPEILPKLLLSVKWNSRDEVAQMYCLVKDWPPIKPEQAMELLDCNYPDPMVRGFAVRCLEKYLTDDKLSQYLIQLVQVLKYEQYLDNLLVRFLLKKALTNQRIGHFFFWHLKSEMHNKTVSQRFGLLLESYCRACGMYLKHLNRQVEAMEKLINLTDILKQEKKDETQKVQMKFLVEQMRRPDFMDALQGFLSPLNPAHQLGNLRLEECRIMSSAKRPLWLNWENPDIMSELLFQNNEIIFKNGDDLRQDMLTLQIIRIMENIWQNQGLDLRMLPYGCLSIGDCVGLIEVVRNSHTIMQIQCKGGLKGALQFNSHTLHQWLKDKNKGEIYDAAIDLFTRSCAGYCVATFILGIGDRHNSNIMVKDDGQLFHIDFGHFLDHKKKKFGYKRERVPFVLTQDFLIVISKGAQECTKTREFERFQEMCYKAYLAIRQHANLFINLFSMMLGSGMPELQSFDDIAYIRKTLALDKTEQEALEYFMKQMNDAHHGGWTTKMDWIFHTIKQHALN
T1 sequence (P27986 whole entry partner): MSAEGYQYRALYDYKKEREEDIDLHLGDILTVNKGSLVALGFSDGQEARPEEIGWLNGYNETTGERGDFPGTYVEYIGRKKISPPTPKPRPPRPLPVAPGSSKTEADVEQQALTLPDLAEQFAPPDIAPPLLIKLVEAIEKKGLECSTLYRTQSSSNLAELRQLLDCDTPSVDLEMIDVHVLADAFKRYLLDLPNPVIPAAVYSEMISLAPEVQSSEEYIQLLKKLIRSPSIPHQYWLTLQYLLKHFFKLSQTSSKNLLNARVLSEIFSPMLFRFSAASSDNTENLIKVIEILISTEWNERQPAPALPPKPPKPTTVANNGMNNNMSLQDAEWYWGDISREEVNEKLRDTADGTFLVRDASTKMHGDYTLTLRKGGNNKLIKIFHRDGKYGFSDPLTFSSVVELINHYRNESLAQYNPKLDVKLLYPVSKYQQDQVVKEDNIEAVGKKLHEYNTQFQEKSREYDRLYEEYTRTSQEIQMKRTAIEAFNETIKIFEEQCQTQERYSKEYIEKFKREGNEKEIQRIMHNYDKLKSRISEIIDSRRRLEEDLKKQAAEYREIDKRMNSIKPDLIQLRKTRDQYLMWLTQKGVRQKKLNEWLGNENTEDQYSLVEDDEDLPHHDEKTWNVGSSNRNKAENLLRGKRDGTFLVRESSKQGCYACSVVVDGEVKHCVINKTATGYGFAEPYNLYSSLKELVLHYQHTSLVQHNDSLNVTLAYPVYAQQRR

pIC50 (PI3Kα (p110α/p85α)): 6.00 to 7.00
pEC50 (Phospho-Akt(Ser473)): ≤ 6.00
Structure (SMILES): COc1ccc(-c2nn(C3CCN(C(=O)CCC(=O)/C=C/c4ccccc4)CC3)c3ncnc(N)c23)cc1OC [XI-3, (E)-1-(4-(4-amino-3-(3,4-dimethoxyphenyl)-1H-pyrazolo[3,4-d]pyrimidin-1-yl)piperidin-1-yl)-6-phenylhex-5-ene-1,4-dione]

pIC50 (PI3Kα (p110α/p85α)): 7.00 to 8.00
pEC50 (Phospho-Akt(Ser473)): 7.00 to 8.00
Structure (SMILES): C=CC(=O)Nc1ccc(C#Cc2cc(-c3cnc(N)nc3)nc(N3CCOCC3)c2)cc1 [XII-4, N-(4-((2-(2-aminopyrimidin-5-yl)-6-morpholinopyridin-4-yl)ethynyl)phenyl)acrylamide]

pIC50 (PI3Kα (p110α/p85α)): > 8.00
pEC50 (Phospho-Akt(Ser473)): 7.00 to 8.00
Structure (SMILES): C=C(CC)C(=O)CCC(=O)N1CCN(c2ccc(-c3ccnc4ccc(/C=C5\SC(=O)NC5=O)cc34)cn2)CC1 [V-20, (Z)-5-((4-(6-(4-(5-methylene-4-oxoheptanoyl)piperazin-1-yl)pyridin-3-yl)quinolin-6-yl)methylene)thiazolidine-2,4-dione]

pIC50 (PI3Kα (p110α/p85α)): 6.00 to 7.00
pEC50 (Phospho-Akt(Ser473)): 7.00 to 8.00
Structure (SMILES): C=CC(=O)Nc1ccc(OCc2cc(-c3cnc(N)nc3)nc(N3CCOCC3)c2)cc1 [XII-5, N-(4-((2-(2-aminopyrimidin-5-yl)-6-morpholinopyridin-4-yl)methoxy)phenyl)acrylamide]

pIC50 (PI3Kα (p110α/p85α)): < 6.00
pEC50 (Phospho-Akt(Ser473)): 6.00 to 7.00
Structure (SMILES): CC(C)=CC(=O)CCCC(=O)N1CCC2(CC1)CN(c1cc(-c3cnc(N)nc3)nc(N3CCOCC3)c1)C2 [XII-41, 1-(2-(2-(2-aminopyrimidin-5-yl)-6-morpholinopyridin-4-yl)-2,7-diazaspiro[3.5]nonan-7-yl)-7-methyloct-6-ene-1,5-dione]

pIC50 (PI3Kα (p110α/p85α)): 6.00 to 7.00
pEC50 (Phospho-Akt(Ser473)): 6.00 to 7.00
Structure (SMILES): C=CC(=O)Nc1cccc(C(=O)N2CC=C(c3cc(-c4cnc(N)nc4)nc(N4CCOCC4)c3)CC2)c1 [XII-47, N-(3-(4-(2-(2-aminopyrimidin-5-yl)-6-morpholinopyridin-4-yl)-1,2,3,6-tetrahydropyridine-1-carbonyl)phenyl)acrylamide]

pIC50 (PI3Kα (p110α/p85α)): 6.00 to 7.00
pEC50 (Phospho-Akt(Ser473)): 6.00 to 7.00
Structure (SMILES): C/C=C/C(=O)CCC(=O)N1CCC(n2ncc3c(N4CCOCC4)nc(-c4ccc(NC(=O)NC)cc4)nc32)CC1 [VII-7, (E)-1-methyl-3-(4-(4-morpholino-1-(1-(4-oxohept-5-enoyl)piperidin-4-yl)-1H-pyrazolo[3,4-d]pyrimidin-6-yl)phenyl)urea]

Second part, the molecule before the results:

Structure (SMILES): O=C(/C=C/c1ccccc1F)CCC(=O)N1CCN(Cc2cc3nc(-c4cccc5[nH]ncc45)nc(N4CCOCC4)c3s2)CC1 [II-a-140, (E)-1-(4-((2-(1H-indazol-4-yl)-4-morpholinothieno[3,2-d]pyrimidin-6-yl)methyl)piperazin-1-yl)-6-(2-fluorophenyl)hex-5-ene-1,4-dione]
pIC50 (PI3Kα (p110α/p85α)): 7.00 to 8.00
pEC50 (Phospho-Akt(Ser473)): 6.00 to 7.00

Structure (SMILES): O=C(/C=C/c1ccccc1)CCCC(=O)N1CC=C(c2cc3nc(-c4cccc5[nH]ncc45)nc(N4CCOCC4)c3s2)CC1 [II-a-137, (E)-1-(4-(2-(1H-indazol-4-yl)-4-morpholinothieno[3,2-d]pyrimidin-6-yl)-5,6-dihydropyridin-1(2H)-yl)-7-phenylhept-6-ene-1,5-dione]
pIC50 (PI3Kα (p110α/p85α)): 7.00 to 8.00
pEC50 (Phospho-Akt(Ser473)): 7.00 to 8.00

Structure (SMILES): C=CC(=O)Nc1ccc(C(=O)N2CCN(Cc3cc4nc(-c5cccc6[nH]ncc56)nc(N5CCOCC5)c4s3)CC2)cc1 [II-a-117, N-(4-(4-((2-(1H-indazol-4-yl)-4-morpholinothieno[3,2-d]pyrimidin-6-yl)methyl)piperazine-1-carbonyl)phenyl)acrylamide]
pIC50 (PI3Kα (p110α/p85α)): 6.00 to 7.00
pEC50 (Phospho-Akt(Ser473)): 7.00 to 8.00

Structure (SMILES): CC(C)=CC(=O)CCC(=O)NCc1ccc(-c2cc3nc(-c4cccc(O)c4)nc(N4CCOCC4)c3s2)cc1 [II-a-122, N-(4-(2-(3-hydroxyphenyl)-4-morpholinothieno[3,2-d]pyrimidin-6-yl)benzyl)-6-methyl-4-oxohept-5-enamide]
pIC50 (PI3Kα (p110α/p85α)): 7.00 to 8.00
pEC50 (Phospho-Akt(Ser473)): 6.00 to 7.00

Structure (SMILES): O=C(/C=C/c1cccs1)CCC(=O)N1CCN(Cc2cc3nc(-c4cccc5[nH]ncc45)nc(N4CCOCC4)c3s2)CC1 [II-a-126, (E)-1-(4-((2-(1H-indazol-4-yl)-4-morpholinothieno[3,2-d]pyrimidin-6-yl)methyl)piperazin-1-yl)-6-(thiophen-2-yl)hex-5-ene-1,4-dione]
pIC50 (PI3Kα (p110α/p85α)): 6.00 to 7.00
pEC50 (Phospho-Akt(Ser473)): ≥ 8.00

Structure (SMILES): COC/C=C(\C)C(=O)CCC(=O)N1CCN(Cc2cc3nc(-c4cccc5[nH]ncc45)nc(N4CCOCC4)c3s2)CC1 [II-a-161, (E)-1-(4-((2-(1H-indazol-4-yl)-4-morpholinothieno[3,2-d]pyrimidin-6-yl)methyl)piperazin-1-yl)-7-methoxy-5-methylhept-5-ene-1,4-dione]
pIC50 (PI3Kα (p110α/p85α)): 6.00 to 7.00
pEC50 (Phospho-Akt(Ser473)): ≥ 8.00

Structure (SMILES): Cc1ccccc1/C=C/C(=O)CCC(=O)N1CCN(Cc2cc3nc(-c4cccc5[nH]ncc45)nc(N4CCOCC4)c3s2)CC1 [II-a-138, (E)-1-(4-((2-(1H-indazol-4-yl)-4-morpholinothieno[3,2-d]pyrimidin-6-yl)methyl)piperazin-1-yl)-6-o-tolylhex-5-ene-1,4-dione]
pIC50 (PI3Kα (p110α/p85α)): 7.00 to 8.00
pEC50 (Phospho-Akt(Ser473)): 6.00 to 7.00

Structure (SMILES): O=C(/C=C/c1ccccn1)CCC(=O)N1CCN(Cc2cc3nc(-c4cccc5[nH]ncc45)nc(N4CCOCC4)c3s2)CC1 [II-a-133, (E)-1-(4-((2-(1H-indazol-4-yl)-4-morpholinothieno[3,2-d]pyrimidin-6-yl)methyl)piperazin-1-yl)-6-(pyridin-2-yl)hex-5-ene-1,4-dione]
pIC50 (PI3Kα (p110α/p85α)): 6.00 to 7.00
pEC50 (Phospho-Akt(Ser473)): 7.00 to 8.00

Structure (SMILES): C=CC(=O)Nc1ccc(C(=O)N(C)Cc2cc3nc(-c4cnc(N)nc4)nc(N4CCOCC4)c3s2)cc1 [II-a-175, 4-acrylamido-N-((2-(2-aminopyrimidin-5-yl)-4-morpholinothieno[3,2-d]pyrimidin-6-yl)methyl)-N-methylbenzamide]
pIC50 (PI3Kα (p110α/p85α)): 7.00 to 8.00
pEC50 (Phospho-Akt(Ser473)): ≥ 8.00

Structure (SMILES): CCCC(=O)CCC(=O)N1CCN(Cc2cc3nc(-c4cccc5[nH]ncc45)nc(N4CCOCC4)c3s2)CC1 [II^R-a-36, 1-(4-((2-(1H-indazol-4-yl)-4-morpholinothieno[3,2-d]pyrimidin-6-yl)methyl)piperazin-1-yl)heptane-1,4-dione]
pIC50 (PI3Kα (p110α/p85α)): < 6.00
pEC50 (Phospho-Akt(Ser473)): 6.00 to 7.00

Structure (SMILES): C=CC(=O)Nc1ccc(S(=O)(=O)N2CCN(Cc3cc4nc(-c5cccc6[nH]ncc56)nc(N5CCOCC5)c4s3)CC2)cc1 [II-a-118, N-(4-(4-((2-(1H-indazol-4-yl)-4-morpholinothieno[3,2-d]pyrimidin-6-yl)methyl)piperazin-1-ylsulfonyl)phenyl)acrylamide]
pIC50 (PI3Kα (p110α/p85α)): 6.00 to 7.00
pEC50 (Phospho-Akt(Ser473)): 6.00 to 7.00

Structure (SMILES): C/C=C/C(=O)CCC(=O)N1CCC(O)(CCc2cc3nc(-c4cccc(O)c4)nc(N4CCOCC4)c3s2)CC1 [II-a-123, (E)-1-(4-hydroxy-4-(2-(2-(3-hydroxyphenyl)-4-morpholinothieno[3,2-d]pyrimidin-6-yl)ethyl)piperidin-1-yl)hept-5-ene-1,4-dione]
pIC50 (PI3Kα (p110α/p85α)): > 8.00
pEC50 (Phospho-Akt(Ser473)): 7.00 to 8.00

Structure (SMILES): O=C(/C=C/c1cccnc1)CCC(=O)N1CCN(Cc2cc3nc(-c4cccc5[nH]ncc45)nc(N4CCOCC4)c3s2)CC1 [II-a-132, (E)-1-(4-((2-(1H-indazol-4-yl)-4-morpholinothieno[3,2-d]pyrimidin-6-yl)methyl)piperazin-1-yl)-6-(pyridin-3-yl)hex-5-ene-1,4-dione]
pIC50 (PI3Kα (p110α/p85α)): 6.00 to 7.00
pEC50 (Phospho-Akt(Ser473)): 7.00 to 8.00

Structure (SMILES): C=CC(=O)Nc1ccc(N2CCN(C(=O)c3cc4nc(-c5cccc(O)c5)nc(N5CCOCC5)c4s3)CC2)cc1 [II-a-127, N-(4-(4-(2-(3-hydroxyphenyl)-4-morpholinothieno[3,2-d]pyrimidine-6-carbonyl)piperazin-1-yl)phenyl)acrylamide]
pIC50 (PI3Kα (p110α/p85α)): 6.00 to 7.00
pEC50 (Phospho-Akt(Ser473)): ≥ 8.00
